Assay results reported in patent US20220401514A1, “ANTIMICROBIAL, BACTERIOPHAGE-DERIVED POLYPEPTIDES AND THEIR USE AGAINST GRAM-NEGATIVE AND ACID-FAST BACTERIA” (CONTRAFECT CORPORATION, priority 2019, published 2022).
Like-named read-outs stand apart in the source and are kept apart here.

Assays:
[1] = system: carbapenem-resistant bacterial strains; assay: organism not typed; type: cell-based
Description: (§1) Determination of Minimal Inhibitory Concentrations (MIC).

[2] = system: carbapenem-resistant P. aeruginosa clinical isolate CFS-1292; assay: MIC by modified CLSI broth microdilution against P. aeruginosa CFS-1292 (CAA, CAA + human serum); type: cell-based, Pseudomonas aeruginosa
[3] = system: M. fortuitum; assay: 45 hr MIC against M. fortuitum (NTM); type: cell-based, Mycobacterium fortuitum; conditions: M. fortuitum subsp. Fortuitum da Costa Cruz. ATCC 6841
[4] = system: P. aeruginosa strain CFS-1292; assay: MIC at pH 6, pH 7 and pH 8; type: cell-based, Pseudomonas aeruginosa
Description: The Chp peptides were further evaluated at varying pH levels. The MIC values were determined at pH 6, pH 7, and pH 8 for 18 different Chp peptides against P. aeruginosa strain CFS-1292. […]

[5] = system: Pseudomonas aeruginosa; assay: microbe, parasite or virus in culture; type: cell-based; conditions: P. aeruginosa isolates (n per peptide in table)
[6] = system: Acinetobacter baumannii; assay: microbe, parasite or virus in culture; type: cell-based
[7] = system: P. aeruginosa; assay: 24-hour time-kill assay at 0.2x, 1x, 5x MIC in CAA, P. aeruginosa; type: cell-based, Pseudomonas aeruginosa
Description: The time-kill assays were performed in CAA media at 37° C. with aeration. Quantitative plating was performed at time periods of 0 hours, 1 hour, 3 hours, and 24 hours. The following Chp peptides were evaluated: Chp2, Chp4, Chp2-M1, Chp4-M1, Chp6, Chp6-M1, Chp10, Chp10-M1, Ecp3, Ecp3-M1, Unp2, Unp2-M1, and Ecp1-M1.

[8] = system: P. aeruginosa strain CFS-1292; assay: MIC in presence of divalent cations (calcium chloride, magnesium sulfate); type: cell-based, Pseudomonas aeruginosa
Description: Next, Chp peptides were evaluated in the presence of different divalent cations. […]; (2) in the presence of 2 mM calcium chloride alone; (3) in the presence of 1 mM magnesium sulfate alone; and (4) in the presence of both 2 mM calcium chloride and 1 mM magnesium sulfate. […]

[9] = system: P. aeruginosa strain CFS-1292; assay: MIC in presence of mouse, rat, rabbit and human serum ([…] each); type: cell-based, Pseudomonas aeruginosa; conditions: P. aeruginosa CFS-1292
Description: The activity of several Chp peptides against P. aeruginosa strain CFS-1292 in animal serum was evaluated. […] Rat, mouse, and rabbit serum were all obtained from pooled gender samples.

[10] = system: M. smegmatis; assay: 45 hr MIC against M. smegmatis (NTM), Mueller Hinton broth; type: cell-based, Mycobacterium smegmatis
[11] = system: Klebsiella pneumoniae; type: cell-based
Description: as §1
(§2) Additional MIC testing was performed for several peptides against the ESKAPE pathogens Escherichia coli, Enterobacter cloacae, Klebsiella pneumoniae, and Acinetobacter baumannii, in CAA supplemented with human serum (Table D).

[12] = system: M. intracellulare; assay: 45 hr MIC against M. intracellulare (NTM); type: cell-based, Mycobacterium intracellulare; conditions: M. intracellulare (Cuttino and McCabe) Runyon ATCC 13950
[13] = system: Mycobacterium tuberculosis strains
Description: MIC values for various Chp peptides were determined using the CLSI method for broth microdilution in 96-well microtiter format.
Next, MIC values for various Chp peptides were determined using the CLSI method above for broth microdilution in 96-well microtiter format for two different Mycobacterium tuberculosis strains. The MIC was determined as explained above for the NTM strains.

[14] = system: Pseudomonas aeruginosa, Escherichia coli, Enterobacter cloacae, Klebsiella pneumoniae, and Acinetobacter baumannii; assay: MIC against a range of Gram-negative organisms (statements covering several species); type: cell-based; conditions: Tables 40-44 isolates
Description: as §1, §2

[15] = system: Escherichia coli; assay: microbe, parasite or virus in culture; type: cell-based
Procedure, shortened: (§3)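 Strains are exposed to peptide dilutions in CAA containing human serum, and the minimal inhibitory concentration is recorded.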

[16] = system: Enterobacter cloacae; assay: microbe, parasite or virus in culture; type: cell-based
Procedure, shortened: as §3

[17] = system: S. maltophilia; assay: MIC against S. maltophilia isolates; type: cell-based, Stenotrophomonas maltophilia; conditions: S. maltophilia isolates (n per peptide in table)
Procedure, shortened: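 MIC in μg/mL for Chp peptides across several S. maltophilia isolates, n denoting the number of isolates tested.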

[18] = system: M. kansasii Hauduroy ATCC 12478; assay: 45 hr MIC against M. kansasii (NTM), Mueller Hinton broth; type: cell-based, Mycobacterium kansasii
[19] = system: M. scrofulaceum; assay: 45 hr MIC against M. scrofulaceum (NTM); type: cell-based, Mycobacterium scrofulaceum; conditions: M. scrofulaceum Prissick and Masson ATCC 19981
[20] = Stability assessment in 100% CAA; type: in vitro ADME; parameters: unit not given beside the values
Description: Stability was assessed after incubation in 100% human serum at 37° C. after 10 minutes, 1 hour, and 2 hours.
Stability assessment was further conducted in 100% CAA and rabbit serum using the same methodology discussed above.

[21] = system: P. aeruginosa strain CFS-1292; assay: MIC in presence and absence of NaCl (140 mM); type: cell-based, Pseudomonas aeruginosa
Description: Certain Chp peptides were evaluated over a range of physiological NaCl levels and pH values, and were further evaluated for activity in the presence of various divalent cations.

[22] = system: P. aeruginosa strain CFS-1292; assay: MIC in presence and absence of Survanta pulmonary surfactant; type: cell-based, Pseudomonas aeruginosa
[23] = system: M. avium; assay: 45 hr MIC against M. avium (NTM); type: cell-based, Mycobacterium avium; conditions: M. avium Chester ATCC 700898
[24] = A. baumannii isolates (n per peptide in table)
[25] = K. pneumoniae isolates (n per peptide in table)
[26] = E. coli isolates (n per peptide in table)
[27] = E. cloacae isolates (n per peptide in table)

What does the source list for “MKRRKLSKKKSRKIFTRGAVNVKKRNLRARPMRGGFRI [Chp10]”?
MIC ([1]; carbapenem-resistant isolate PA19): 0.5 µg/mL; MIC ([1]; carbapenem-resistant isolate PA20): 8 µg/mL; MIC ([1]; carbapenem-resistant isolate PA21): 8 µg/mL; MIC ([1]; carbapenem-resistant isolate PA22): 8 µg/mL; MIC ([1]; carbapenem-resistant isolate PA23): 4 µg/mL; MIC ([1]; carbapenem-resistant isolate PA24): 4 µg/mL; MIC ([1]; carbapenem-resistant isolate WLC-452): 1 µg/mL; MIC (μg/mL) against CFS-1292 in 100% CAA (1st run/2nd run) ([2]; 100% CAA, 1st run or single value): 0.5 µg/mL; MIC (μg/mL) against CFS-1292 in CAA + […] human serum ([2]; CAA + […] human serum): 0.5 µg/mL; 45 hr MIC [3]: 1 µg/mL; MIC ([4]; CAA media (pH 7)): 0.5 µg/mL; MIC ([4]; pH 6): 2 µg/mL; MIC ([4]; pH 7): 1 µg/mL; MIC ([4]; pH 8): 1 µg/mL; MIC50 [5]: 4 µg/mL; MIC100 [5]: 8 µg/mL; MIC Range [5]: 0.5 to 8 µg/mL; MIC50 [6, 24]: 0.5 µg/mL; MIC100 [6, 24]: 0.5 µg/mL; MIC Range [6, 24]: 0.25 to 0.5 µg/mL; MIC ([6]; Acinetobacter baumannii ATCC BAA 747, CAA supplemented with human serum): 2 µg/mL; Log10 CFU/mL compared to untreated control buffer (24-hour time-kill) [7]: all but Chp10 maintaining strong efficacy up to 24 hours; MIC ([8]; CAA media + 1 mM MgSO4): 1 µg/mL; MIC ([8]; CAA media + 2 mM CaCl2): 1 µg/mL; MIC ([8]; CAA media + + 1 mM MgSO4): 2 µg/mL; MIC ([8]; CAA media alone): 0.5 µg/mL; MIC BALB/C Mouse Serum ([9]; BALB/C mouse serum […]): 32 µg/mL; MIC CAA ([9]; CAA): 1 µg/mL; MIC New Zealand White Rabbit Serum ([9]; New Zealand White rabbit serum […]): 4 µg/mL; MIC Sprague Dawley Rat Serum ([9]; Sprague Dawley rat serum […]): 4 µg/mL; MIC Human Serum ([9]; human serum […]): 1 µg/mL; 45 hr MIC ([10]; M. smegmatis MC^2 155, Run #1): 2 µg/mL; 45 hr MIC ([10]; M. smegmatis MC^2 155, Run #2): 1 µg/mL; MIC50 [11, 25]: 0.25 µg/mL; MIC100 [11, 25]: 0.5 µg/mL; MIC Range [11, 25]: 0.125 to 0.5 µg/mL; MIC ([11]; Klebsiella pneumoniae HM-44, CAA supplemented with human serum): 0.5 µg/mL; 45 hr MIC [12]: 0.5 µg/mL; MIC ([13]; Mycobacterium tuberculosis (Zopf) Lehmann and Neumann ATCC 25177): 32 µg/mL; MIC ([13]; Mycobacterium tuberculosis (Zopf) Lehmann and Neumann ATCC 35817): 8 µg/mL; activity (good = MIC100 of ≤4) against all of P. aeruginosa, K. pneumoniae, A. baumannii, E. cloacae, and E. coli [14]: good activity; MIC50 [15, 26]: 0.5 µg/mL; MIC100 [15, 26]: 1 µg/mL; MIC Range [15, 26]: 0.03 to 0.2 µg/mL; MIC ([15]; Escherichia coli ATCC 25922, CAA supplemented with human serum): 0.5 µg/mL; MIC50 [16, 27]: 0.25 µg/mL; MIC100 [16, 27]: 1 µg/mL; MIC Range [16, 27]: 0.125 to 2 µg/mL; MIC ([16]; Enterobacter cloacae ATCC 13047, CAA supplemented with human serum): 1 µg/mL; MIC50 [17]: 8 µg/mL; MIC100 [17]: >8 µg/mL; 45 hr MIC [18]: 4 µg/mL; 45 hr MIC [19]: 0.5 µg/mL; MIC (100% CAA) [20]: 0.5; Fold change in MIC ([21]; CAA + 140 mM NaCl versus CAA without added NaCl): 4; MIC, CAA + 140 mM NaCl ([21]; CAA + 140 mM NaCl, P. aeruginosa CFS-1292): 2 µg/mL; MIC, CAA (no added NaCl) ([21]; CAA, no added NaCl, P. aeruginosa CFS-1292): 0.5 µg/mL; MIC ([22]; CAA media + 0.19 mg/mL Survanta): 0.5 µg/mL; MIC ([22]; CAA media + […] Survanta): 0.5 µg/mL; MIC ([22]; CAA media alone): 0.5 µg/mL; 45 hr MIC [23]: 0.5 µg/mL
